± gives the expanded uncertainty stated by the source.
Assay: xn = mol fraction of the nth substance listed
Details: 100 kPa, Liquid

CCOS(=O)(=O)[O-].CC[NH+]=C(N(C)C)N(C)C [2-ethyl-1,1,3,3-tetramethylguanidinium ethyl sulfate] + CCO
Details	mass density [kg/m3]	viscosity [mPa·s]
293.15 K, x1 = 0.0998	910.21 ± 0.35	2.824 ± 0.11
293.15 K, x1 = 0.2003	984.3 ± 0.24	5.826 ± 0.23
293.15 K, x1 = 0.3006	1033.78 ± 0.3	11.42 ± 0.46
293.15 K, x1 = 0.4016	1069.61 ± 0.43	22.83 ± 0.92
293.15 K, x1 = 0.498	1095.76 ± 0.56	40.88 ± 1.7
293.15 K, x1 = 0.5996	1117.54 ± 0.72	73.39 ± 4.9
293.15 K, x1 = 0.6976	1134.51 ± 0.88	127.4 ± 21
293.15 K, x1 = 0.7969	1148.58 ± 1.1	213.6 ± 54
293.15 K, x1 = 0.9008	1160.83 ± 1.3	385.6 ± 140
293.15 K, x1 = 1	1170.76 ± 1.5	673.4 ± 300
298.15 K, x1 = 0.0998	906.2 ± 0.35	2.546 ± 0.1
298.15 K, x1 = 0.2003	980.34 ± 0.25	5.136 ± 0.21
298.15 K, x1 = 0.3006	1030 ± 0.3	9.821 ± 0.4
298.15 K, x1 = 0.4016	1065.96 ± 0.42	19.07 ± 0.77
298.15 K, x1 = 0.498	1092.12 ± 0.55	33.16 ± 1.3
298.15 K, x1 = 0.5996	1113.91 ± 0.71	57.2 ± 1.4
298.15 K, x1 = 0.6976	1130.91 ± 0.87	95.44 ± 11
298.15 K, x1 = 0.7969	1145.02 ± 1.1	154 ± 30
298.15 K, x1 = 0.9008	1157.3 ± 1.3	264.4 ± 77
298.15 K, x1 = 1	1167.24 ± 1.5	441.5 ± 170
303.15 K, x1 = 0.0998	902.18 ± 0.36	2.307 ± 0.093
303.15 K, x1 = 0.2003	976.55 ± 0.25	4.559 ± 0.18
303.15 K, x1 = 0.3006	1026.22 ± 0.29	8.524 ± 0.34
303.15 K, x1 = 0.4016	1062.27 ± 0.42	16.15 ± 0.65
303.15 K, x1 = 0.498	1088.47 ± 0.55	27.11 ± 1.1
303.15 K, x1 = 0.5996	1110.31 ± 0.7	45.41 ± 1.8
303.15 K, x1 = 0.6976	1127.33 ± 0.86	73.08 ± 4.8
303.15 K, x1 = 0.7969	1141.46 ± 1	114.2 ± 16
303.15 K, x1 = 0.9008	1153.79 ± 1.2	187.9 ± 43
303.15 K, x1 = 1	1163.76 ± 1.5	302.5 ± 95
308.15 K, x1 = 0.0998	898.18 ± 0.36	2.096 ± 0.084
308.15 K, x1 = 0.2003	972.66 ± 0.26	4.072 ± 0.16
308.15 K, x1 = 0.3006	1022.45 ± 0.29	7.459 ± 0.3
308.15 K, x1 = 0.4016	1058.6 ± 0.41	13.81 ± 0.56
308.15 K, x1 = 0.498	1084.84 ± 0.54	22.56 ± 0.91
308.15 K, x1 = 0.5996	1106.73 ± 0.69	36.71 ± 1.5
308.15 K, x1 = 0.6976	1123.77 ± 0.85	57.39 ± 1.4
308.15 K, x1 = 0.7969	1137.92 ± 1	86.55 ± 8.3
308.15 K, x1 = 0.9008	1150.29 ± 1.2	134.9 ± 23
308.15 K, x1 = 1	1160.28 ± 1.5	214.6 ± 54
313.15 K, x1 = 0.0998	894.15 ± 0.37	1.91 ± 0.077
313.15 K, x1 = 0.2003	968.7 ± 0.26	3.656 ± 0.15
313.15 K, x1 = 0.3006	1018.66 ± 0.28	6.577 ± 0.27
313.15 K, x1 = 0.4016	1054.91 ± 0.4	11.92 ± 0.48
313.15 K, x1 = 0.498	1081.22 ± 0.53	19.04 ± 0.77
313.15 K, x1 = 0.5996	1103.16 ± 0.68	30.14 ± 1.2
313.15 K, x1 = 0.6976	1120.23 ± 0.84	45.97 ± 1.9
313.15 K, x1 = 0.7969	1134.39 ± 1	67.31 ± 3.5
313.15 K, x1 = 0.9008	1146.78 ± 1.2	103.7 ± 13
313.15 K, x1 = 1	1156.8 ± 1.4	157.2 ± 31
318.15 K, x1 = 0.0998	890.12 ± 0.37	1.746 ± 0.07
318.15 K, x1 = 0.2003	964.81 ± 0.27	3.298 ± 0.13
318.15 K, x1 = 0.3006	1014.86 ± 0.27	5.839 ± 0.23
318.15 K, x1 = 0.4016	1051.24 ± 0.4	10.38 ± 0.42
318.15 K, x1 = 0.498	1077.62 ± 0.52	16.26 ± 0.66
318.15 K, x1 = 0.5996	1099.62 ± 0.67	25.65 ± 1
318.15 K, x1 = 0.6976	1116.66 ± 0.83	37.27 ± 1.5
318.15 K, x1 = 0.7969	1130.88 ± 1	53.38 ± 0.75
318.15 K, x1 = 0.9008	1143.26 ± 1.2	79.6 ± 6.5
318.15 K, x1 = 1	1153.33 ± 1.4	118.3 ± 18
323.15 K, x1 = 0.0998	886.07 ± 0.39	1.601 ± 0.065
323.15 K, x1 = 0.2003	960.91 ± 0.28	2.99 ± 0.12
323.15 K, x1 = 0.3006	1011.05 ± 0.27	5.215 ± 0.21
323.15 K, x1 = 0.4016	1047.55 ± 0.39	9.094 ± 0.37
323.15 K, x1 = 0.498	1074.02 ± 0.52	14.01 ± 0.57
323.15 K, x1 = 0.5996	1096.11 ± 0.67	21.2 ± 0.86
323.15 K, x1 = 0.6976	1113.14 ± 0.83	30.75 ± 1.3
323.15 K, x1 = 0.7969	1127.39 ± 1	43.06 ± 1.8
323.15 K, x1 = 0.9008	1139.76 ± 1.2	62.7 ± 2.5
323.15 K, x1 = 1	1149.87 ± 1.4	91.22 ± 9.6
